Data taken from ChEMBL document CHEMBL4819140, “A novel GSK-3 inhibitor binds to GSK-3β via a reversible, time and Cys-199-dependent mechanism” (Bioorg Med Chem, 2021).
Activity calls are given as the source filed them. No cut-off for these calls is given here.

Key:
[1] = Thiol reactivity of the compound with ethanethiol DTT by HPLC analysis; assay type: physicochemical
[2] = biological target: T1, Glycogen synthase kinase-3 beta (Homo sapiens, UniProt P49841); test: Inhibition of human GSK-3beta preincubated for 3 hrs followed by ATP and substrate addition measured by serial dilution assay
Target sequence in this assay (P49841 whole entry): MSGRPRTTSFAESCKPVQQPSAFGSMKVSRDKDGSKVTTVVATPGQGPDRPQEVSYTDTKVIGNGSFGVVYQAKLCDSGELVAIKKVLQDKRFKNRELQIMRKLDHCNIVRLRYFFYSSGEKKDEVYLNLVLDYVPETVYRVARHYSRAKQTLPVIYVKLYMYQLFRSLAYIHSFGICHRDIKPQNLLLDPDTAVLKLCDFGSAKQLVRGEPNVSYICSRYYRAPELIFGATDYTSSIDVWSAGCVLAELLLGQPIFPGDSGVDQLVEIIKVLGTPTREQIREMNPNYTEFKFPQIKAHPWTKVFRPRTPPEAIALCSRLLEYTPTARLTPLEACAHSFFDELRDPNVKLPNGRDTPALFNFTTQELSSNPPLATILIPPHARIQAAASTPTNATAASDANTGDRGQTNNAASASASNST

[3] = biological target: Mitogen-activated protein kinase kinase kinase 20 (Homo sapiens) (UniProt Q9NYL2); test: Inhibition of human recombinant ZAK by Lanthascreen assay; conditions: concentration not given here
[4] = biological target: Glycogen synthase kinase-3 beta (Homo sapiens, UniProt P49841, C199A); test: Inhibition of human GSK-3beta C199A mutant incubated with substrate in presence of ATP measured by serial dilution assay
[5] = biological target: Mitogen-activated protein kinase kinase kinase 7 (Homo sapiens) (UniProt O43318); test: Inhibition of human recombinant MAP3K7 by Lanthascreen assay; conditions: concentration not given here
[6] = biological target: Cyclin-G-associated kinase (Homo sapiens) (UniProt O14976); test: Inhibition of human recombinant GAK by Lanthascreen assay; conditions: concentration not given here
Cyclin-G-associated kinase (Homo sapiens), sequence (O14976 whole entry): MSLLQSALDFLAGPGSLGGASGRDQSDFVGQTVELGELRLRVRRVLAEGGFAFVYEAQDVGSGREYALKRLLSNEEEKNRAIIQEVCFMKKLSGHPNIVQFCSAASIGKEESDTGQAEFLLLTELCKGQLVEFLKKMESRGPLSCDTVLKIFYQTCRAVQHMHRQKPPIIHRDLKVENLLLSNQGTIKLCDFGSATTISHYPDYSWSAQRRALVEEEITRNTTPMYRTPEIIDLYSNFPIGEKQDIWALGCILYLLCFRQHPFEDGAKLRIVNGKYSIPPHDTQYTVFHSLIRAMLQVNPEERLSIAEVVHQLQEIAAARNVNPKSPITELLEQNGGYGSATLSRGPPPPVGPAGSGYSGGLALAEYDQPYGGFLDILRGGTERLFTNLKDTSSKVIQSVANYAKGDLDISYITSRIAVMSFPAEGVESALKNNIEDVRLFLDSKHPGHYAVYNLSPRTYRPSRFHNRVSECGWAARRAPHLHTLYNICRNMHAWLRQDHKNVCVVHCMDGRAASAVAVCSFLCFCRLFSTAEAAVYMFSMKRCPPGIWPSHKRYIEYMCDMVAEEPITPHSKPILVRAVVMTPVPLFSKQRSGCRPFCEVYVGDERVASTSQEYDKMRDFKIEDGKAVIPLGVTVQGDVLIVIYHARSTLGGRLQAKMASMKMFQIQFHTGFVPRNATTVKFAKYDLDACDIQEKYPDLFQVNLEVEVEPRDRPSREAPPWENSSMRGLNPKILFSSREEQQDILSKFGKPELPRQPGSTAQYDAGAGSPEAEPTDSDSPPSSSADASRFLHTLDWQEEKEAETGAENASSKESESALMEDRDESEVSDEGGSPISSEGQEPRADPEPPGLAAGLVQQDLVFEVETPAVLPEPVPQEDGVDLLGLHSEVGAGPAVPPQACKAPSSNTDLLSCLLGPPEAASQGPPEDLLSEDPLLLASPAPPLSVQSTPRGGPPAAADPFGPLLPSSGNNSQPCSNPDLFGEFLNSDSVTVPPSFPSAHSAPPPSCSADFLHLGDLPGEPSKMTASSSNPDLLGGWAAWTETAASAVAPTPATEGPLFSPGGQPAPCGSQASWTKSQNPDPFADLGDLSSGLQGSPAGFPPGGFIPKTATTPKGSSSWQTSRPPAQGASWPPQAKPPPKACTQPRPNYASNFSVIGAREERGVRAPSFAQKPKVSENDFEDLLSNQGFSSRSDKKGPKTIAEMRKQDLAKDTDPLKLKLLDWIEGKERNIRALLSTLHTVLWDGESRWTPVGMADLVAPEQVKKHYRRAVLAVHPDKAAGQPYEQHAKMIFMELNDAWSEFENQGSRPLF

[7] = biological target: T1, Glycogen synthase kinase-3 beta; conditions: dose 700.0 nM
Target sequence in this assay (P49841 whole entry, looked up): as the sequence (P49841 whole entry) above
Description: Reversible inhibition of recombinant human GSK-3beta at 700 nM incubated with substrate and ATP master mix solution by jump dilution assays

[8] = biological target: Mitogen-activated protein kinase 3 (Homo sapiens) (UniProt P27361); test: Inhibition of human recombinant MAPK3 in presence of ATP by Z-lyte kinase assay; conditions: concentration not given here
[9] = biological target: Ribosomal protein S6 kinase alpha-6 (Homo sapiens) (UniProt Q9UK32); test: Inhibition of human recombinant RSK4 in presence of ATP by Z-lyte kinase assay; conditions: concentration not given here
[10] = biological target: Vascular endothelial growth factor receptor 1 (Homo sapiens) (UniProt P17948); test: Inhibition of human recombinant FLT1 in presence of ATP by Z-lyte kinase assay; conditions: concentration not given here
[11] = biological target: Dual specificity mitogen-activated protein kinase kinase 2 (Homo sapiens) (UniProt P36507); test: Inhibition of human recombinant MAP2K2 by Lanthascreen assay; conditions: concentration not given here
Dual specificity mitogen-activated protein kinase kinase 2 (Homo sapiens), sequence (P36507 whole entry): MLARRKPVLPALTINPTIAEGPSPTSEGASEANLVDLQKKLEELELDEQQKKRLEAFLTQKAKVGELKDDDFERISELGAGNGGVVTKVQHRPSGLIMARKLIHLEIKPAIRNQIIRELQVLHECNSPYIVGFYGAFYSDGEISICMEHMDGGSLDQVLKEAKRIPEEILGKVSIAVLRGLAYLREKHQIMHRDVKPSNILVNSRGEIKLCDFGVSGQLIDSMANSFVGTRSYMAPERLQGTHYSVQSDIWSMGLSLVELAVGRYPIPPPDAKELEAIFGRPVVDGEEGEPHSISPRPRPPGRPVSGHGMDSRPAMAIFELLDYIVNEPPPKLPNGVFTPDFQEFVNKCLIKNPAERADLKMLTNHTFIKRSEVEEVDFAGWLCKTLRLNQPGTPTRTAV

[12] = biological target: Cyclin-dependent kinase-like 5 (Homo sapiens) (UniProt O76039); test: Inhibition of human recombinant CDKL5 in presence of ATP by Z-lyte kinase assay; conditions: concentration not given here
[13] = biological target: T1, Glycogen synthase kinase-3 beta; test: Inhibition of human GSK-3beta assessed as decrease in relative fluorescence unit measured upto 60 mins by kinase-profiling analysis; conditions: time min <=60, TDE = time-dependent effect
Target sequence in this assay (P49841 whole entry, looked up): as the sequence (P49841 whole entry) above

[14] = biological target: T1, Glycogen synthase kinase-3 beta; conditions: dose 100.0 nM
Target sequence in this assay (P49841 whole entry, looked up): as the sequence (P49841 whole entry) above

[15] = biological target: T1, Glycogen synthase kinase-3 beta; test: Reversible inhibition of recombinant human GSK-3beta at 70 uM preincubated for 3 hrs followed by diluted with substrate and ATP master mix solution measured upto 1.5 hrs by jump dilution assays relative to control; conditions: time 4.5 hrs
Target sequence in this assay (P49841 whole entry, looked up): as the sequence (P49841 whole entry) above

[16] = biological target: MAP kinase-interacting serine/threonine-protein kinase 2 (Homo sapiens) (UniProt Q9HBH9); test: Inhibition of human recombinant MNK2 by Lanthascreen assay; conditions: concentration not given here
[17] = biological target: T1, Glycogen synthase kinase-3 beta; conditions: dose 200.0 nM
Target sequence in this assay (P49841 whole entry, looked up): as the sequence (P49841 whole entry) above

[18] = biological target: Mitogen-activated protein kinase 15 (Homo sapiens) (UniProt Q8TD08); test: Inhibition of human recombinant MAPK15 by Lanthascreen assay; conditions: concentration not given here
[19] = biological target: MAP kinase-interacting serine/threonine-protein kinase 1 (Homo sapiens) (UniProt Q9BUB5); test: Inhibition of human recombinant MNK1 in presence of ATP by Z-lyte kinase assay; conditions: concentration not given here
[20] = biological target: Ribosomal protein S6 kinase alpha-3 (Homo sapiens) (UniProt P51812); test: Inhibition of human recombinant RSK2 in presence of ATP by Z-lyte kinase assay; conditions: concentration not given here
[21] = biological target: T1, Glycogen synthase kinase-3 beta; test: Inhibition of human GSK-3beta incubated with substrate in presence of ATP measured by serial dilution assay
Target sequence in this assay (P49841 whole entry): as above

[22] = biological target: T1, Glycogen synthase kinase-3 beta; test: Inhibition of human recombinant GSK3B in presence of ATP by Z-lyte kinase assay; conditions: concentration not given here
Target sequence in this assay (P49841 whole entry, looked up): as the sequence (P49841 whole entry) above

[23] = biological target: AP2-associated protein kinase 1 (Homo sapiens) (UniProt Q2M2I8); test: Inhibition of human recombinant AAK1 by Lanthascreen assay; conditions: concentration not given here
[24] = biological target: Serine/threonine-protein kinase D2 (Homo sapiens) (UniProt Q9BZL6); test: Inhibition of human recombinant PKD2 in presence of ATP by Z-lyte kinase assay; conditions: concentration not given here
[25] = Thiol reactivity of the compound with tri-butylphosphine by HPLC analysis; assay type: physicochemical
[26] = biological target: Ribosomal protein S6 kinase alpha-1 (Homo sapiens) (UniProt Q15418); test: Inhibition of human recombinant RSK1 in presence of ATP by Z-lyte kinase assay; conditions: concentration not given here
[27] = biological target: Mast/stem cell growth factor receptor Kit (Homo sapiens) (UniProt P10721); test: Inhibition of human recombinant KIT in presence of ATP by Z-lyte kinase assay; conditions: concentration not given here
Mast/stem cell growth factor receptor Kit (Homo sapiens), sequence (P10721 whole entry): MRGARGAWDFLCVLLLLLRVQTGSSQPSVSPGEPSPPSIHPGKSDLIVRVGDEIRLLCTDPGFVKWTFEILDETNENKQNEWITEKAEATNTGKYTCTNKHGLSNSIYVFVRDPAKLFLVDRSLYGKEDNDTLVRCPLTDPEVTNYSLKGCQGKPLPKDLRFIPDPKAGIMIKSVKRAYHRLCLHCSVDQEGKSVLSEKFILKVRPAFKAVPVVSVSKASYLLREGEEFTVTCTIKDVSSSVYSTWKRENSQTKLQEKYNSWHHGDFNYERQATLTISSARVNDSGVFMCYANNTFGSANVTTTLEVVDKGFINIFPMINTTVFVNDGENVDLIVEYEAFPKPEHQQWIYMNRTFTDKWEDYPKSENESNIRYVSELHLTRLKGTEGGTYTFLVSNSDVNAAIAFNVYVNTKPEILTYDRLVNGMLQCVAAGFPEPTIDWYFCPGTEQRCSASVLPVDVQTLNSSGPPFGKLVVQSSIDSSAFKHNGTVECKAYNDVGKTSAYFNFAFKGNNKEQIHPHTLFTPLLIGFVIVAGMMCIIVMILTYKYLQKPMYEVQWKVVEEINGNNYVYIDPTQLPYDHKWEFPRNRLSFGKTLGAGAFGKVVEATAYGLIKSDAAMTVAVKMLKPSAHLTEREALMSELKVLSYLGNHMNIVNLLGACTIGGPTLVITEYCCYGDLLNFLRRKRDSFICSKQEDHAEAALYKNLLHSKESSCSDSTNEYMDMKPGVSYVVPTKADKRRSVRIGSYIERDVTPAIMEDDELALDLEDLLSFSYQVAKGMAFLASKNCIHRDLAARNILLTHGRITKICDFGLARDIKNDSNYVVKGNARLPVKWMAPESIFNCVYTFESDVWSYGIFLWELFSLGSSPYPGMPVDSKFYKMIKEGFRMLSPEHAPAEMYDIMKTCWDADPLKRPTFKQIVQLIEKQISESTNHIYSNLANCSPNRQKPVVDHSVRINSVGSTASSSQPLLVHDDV

[28] = biological target: Mitogen-activated protein kinase 1 (Homo sapiens) (UniProt P28482); test: Inhibition of human recombinant MAPK1 in presence of ATP by Z-lyte kinase assay; conditions: concentration not given here
[29] = biological target: Dual specificity mitogen-activated protein kinase kinase 1 (Homo sapiens) (UniProt Q02750); test: Inhibition of human recombinant MAP2K1 in presence of ATP by Z-lyte kinase assay; conditions: concentration not given here
Dual specificity mitogen-activated protein kinase kinase 1 (Homo sapiens), sequence (Q02750 whole entry): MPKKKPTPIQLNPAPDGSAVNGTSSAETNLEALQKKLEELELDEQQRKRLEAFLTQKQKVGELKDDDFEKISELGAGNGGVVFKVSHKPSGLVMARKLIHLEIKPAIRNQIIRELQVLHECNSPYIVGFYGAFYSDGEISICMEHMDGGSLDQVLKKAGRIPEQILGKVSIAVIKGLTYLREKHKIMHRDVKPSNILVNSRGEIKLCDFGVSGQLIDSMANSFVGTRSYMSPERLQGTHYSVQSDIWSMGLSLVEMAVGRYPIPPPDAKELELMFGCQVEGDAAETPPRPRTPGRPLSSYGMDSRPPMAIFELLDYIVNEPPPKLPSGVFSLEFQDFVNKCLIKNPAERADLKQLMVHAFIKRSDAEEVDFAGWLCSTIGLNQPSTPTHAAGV

[30] = biological target: Glycogen synthase kinase-3 alpha (Homo sapiens) (UniProt P49840); test: Inhibition of human recombinant GSK3A in presence of ATP by Z-lyte kinase assay; conditions: concentration not given here
[31] = biological target: Dual specificity mitogen-activated protein kinase kinase 4 (Homo sapiens) (UniProt P45985); test: Inhibition of human recombinant MAP2K4 by Lanthascreen assay; conditions: concentration not given here
[32] = biological target: MAP kinase-activated protein kinase 5 (Homo sapiens) (UniProt Q8IW41); test: Inhibition of human recombinant PRAK in presence of ATP by Z-lyte kinase assay; conditions: concentration not given here
[33] = biological target: T1, Glycogen synthase kinase-3 beta; test: Reversible inhibition of recombinant human GSK-3beta at 10 uM preincubated for 3 hrs followed by diluted with substrate and ATP master mix solution measured upto 1.5 hrs by jump dilution assays; conditions: time 4.5 hrs, TDE = time-dependent effect
[34] = biological target: Ribosomal protein S6 kinase alpha-2 (Homo sapiens) (UniProt Q15349); test: Inhibition of human recombinant RSK3 in presence of ATP by Z-lyte kinase assay; conditions: concentration not given here
[35] = biological target: Dual specificity mitogen-activated protein kinase kinase 5 (Homo sapiens) (UniProt Q13163); test: Inhibition of human recombinant MAP2K5 by Lanthascreen assay; conditions: concentration not given here
[36] = biological target: Serine/threonine-protein kinase D3 (Homo sapiens) (UniProt O94806); test: Inhibition of human recombinant PKD3 in presence of ATP by Z-lyte kinase assay; conditions: concentration not given here
Serine/threonine-protein kinase D3 (Homo sapiens), sequence (O94806 whole entry): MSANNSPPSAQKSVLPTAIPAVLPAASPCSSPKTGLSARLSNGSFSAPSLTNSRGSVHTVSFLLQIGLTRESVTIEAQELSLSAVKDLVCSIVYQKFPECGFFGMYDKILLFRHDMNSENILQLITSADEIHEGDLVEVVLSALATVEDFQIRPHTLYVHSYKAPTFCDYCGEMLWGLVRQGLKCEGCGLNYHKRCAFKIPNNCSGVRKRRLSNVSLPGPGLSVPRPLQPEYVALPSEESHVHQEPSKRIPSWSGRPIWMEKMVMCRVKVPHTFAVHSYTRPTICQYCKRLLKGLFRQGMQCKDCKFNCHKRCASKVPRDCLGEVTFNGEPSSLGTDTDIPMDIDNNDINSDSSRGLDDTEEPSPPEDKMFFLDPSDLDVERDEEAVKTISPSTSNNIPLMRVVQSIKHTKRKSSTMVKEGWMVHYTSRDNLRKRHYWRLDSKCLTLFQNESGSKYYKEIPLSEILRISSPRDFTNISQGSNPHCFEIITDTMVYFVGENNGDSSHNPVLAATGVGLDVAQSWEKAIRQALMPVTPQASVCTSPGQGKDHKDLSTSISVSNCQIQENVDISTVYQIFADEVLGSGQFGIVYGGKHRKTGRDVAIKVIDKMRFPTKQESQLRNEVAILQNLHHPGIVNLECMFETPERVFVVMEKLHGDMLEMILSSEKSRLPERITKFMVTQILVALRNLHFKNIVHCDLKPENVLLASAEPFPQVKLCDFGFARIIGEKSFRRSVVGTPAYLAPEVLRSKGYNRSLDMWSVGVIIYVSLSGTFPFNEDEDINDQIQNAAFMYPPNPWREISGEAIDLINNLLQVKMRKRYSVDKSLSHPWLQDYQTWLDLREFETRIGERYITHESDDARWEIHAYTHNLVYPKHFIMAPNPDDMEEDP

[37] = biological target: Platelet-derived growth factor receptor alpha (Homo sapiens) (UniProt P16234); test: Inhibition of human recombinant PDGFRA in presence of ATP by Z-lyte kinase assay; conditions: concentration not given here
[38] = biological target: Dual specificity mitogen-activated protein kinase kinase 1 (Homo sapiens) (UniProt Q02750); test: Inhibition of human recombinant MAP2K1 by Lanthascreen assay; conditions: concentration not given here
[39] = biological target: Dual specificity mitogen-activated protein kinase kinase 2 (Homo sapiens) (UniProt P36507); test: Inhibition of human recombinant MAP2K2 in presence of 100 uM ATP by Z-lyte kinase assay
[40] = biological target: TGF-beta receptor type-2 (Homo sapiens) (UniProt P37173); test: Inhibition of human recombinant TGFBR2 by Lanthascreen assay; conditions: concentration not given here
[41] = biological target: Serine/threonine-protein kinase NLK (Homo sapiens) (UniProt Q9UBE8); test: Inhibition of human recombinant NLK by Lanthascreen assay; conditions: concentration not given here
[42] = biological target: Dual specificity mitogen-activated protein kinase kinase 3 (Homo sapiens) (UniProt P46734); test: Inhibition of human recombinant MAP2K3 by Lanthascreen assay; conditions: concentration not given here
[43] = biological target: Platelet-derived growth factor receptor beta (Homo sapiens) (UniProt P09619); test: Inhibition of human recombinant PDGFRB in presence of ATP by Z-lyte kinase assay; conditions: concentration not given here
[44] = biological target: T1, Glycogen synthase kinase-3 beta; test: Reversible inhibition of recombinant human GSK-3beta at 10 uM preincubated for 3 hrs followed by diluted with substrate and ATP master mix solution measured first 30 mins by jump dilution assays; conditions: time 3.5 hrs
[45] = biological target: Vascular endothelial growth factor receptor 3 (Homo sapiens) (UniProt P35916); test: Inhibition of human recombinant FLT4 in presence of ATP by Z-lyte kinase assay; conditions: concentration not given here
[46] = biological target: Receptor-type tyrosine-protein kinase FLT3 (Homo sapiens) (UniProt P36888); test: Inhibition of human recombinant FLT3 in presence of ATP by Z-lyte kinase assay; conditions: concentration not given here
[47] = biological target: T1, Glycogen synthase kinase-3 beta; conditions: dose 400.0 nM, time 4.5 hrs

OC1(c2ccccc2)CSC(=S)N1Cc1ccncc1 (configuration not stated)
Drug metabolism [1]: Metabolite_Notdetected
IC50 [2]: 0.102 µM
inhibition [3]: 9%
IC50 [4]: 121 µM
inhibition [5]: 21%
inhibition [6]: 24%
inhibition [7]: inactive
inhibition [8]: 26%
inhibition [9]: 18%
inhibition [10]: 0%
inhibition [11]: 4%
inhibition [12]: 3.2%
inhibition [13]: Tde
inhibition [14]: inactive
inhibition [15]: Active
inhibition [16]: 1%
inhibition [17]: inactive
inhibition [18]: 26%
inhibition [19]: -2%
inhibition [20]: 11%
IC50 [21]: 0.37 µM
inhibition [22]: 89%
inhibition [23]: 11%
inhibition [24]: 11%
Drug metabolism [25]: Metabolite_Notdetected
inhibition [26]: 6%
inhibition [27]: 4%
inhibition [28]: 29%
inhibition [29]: 6%
inhibition [30]: 91%
inhibition [31]: 12%
inhibition [32]: 60%
inhibition [33]: Tde
inhibition [34]: 9%
inhibition [35]: 1%
inhibition [36]: 10%
inhibition [37]: -2%
inhibition [38]: 5%
inhibition [39]: 7%
inhibition [40]: 20%
inhibition [41]: 24%
inhibition [42]: 7%
inhibition [43]: -2%
inhibition [44]: Active
inhibition [45]: 1.9%
inhibition [46]: 2%

COc1cc(O)c2c(c1)[C@H]1O[C@@H]1C[C@H](O)[C@H](O)C(=O)/C=C\C[C@H](C)OC2=O [HYPOTHEMYCIN]
IC50 [2]: 0.663 µM
inhibition [7]: inactive
inhibition [14]: inactive
inhibition [17]: inactive
IC50 [21]: 11.3 µM

O=C1Cc2c([nH]c3ccc([N+](=O)[O-])cc23)-c2ccccc2N1
inhibition [47]: Active
